pKd: −log10 of the molar value. “Also recorded” adds a separate entry of the source. Read-outs that look alike come from different tables or passages of the source.

Experiment [1] has as its target T1, BmorPBP1 (Bombyx mori pheromone-binding protein PBP1) (Bombyx mori, UniProt P34174).
T1 construct: polyhistidine (his-tag, from pET15b) (N); made in house; host or cells: Escherichia coli
T1 sequence (P34174 23-164): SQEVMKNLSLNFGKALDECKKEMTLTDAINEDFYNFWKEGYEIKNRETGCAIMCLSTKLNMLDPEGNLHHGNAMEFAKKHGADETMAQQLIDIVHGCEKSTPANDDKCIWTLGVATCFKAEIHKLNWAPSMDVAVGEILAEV
The experiment in a line: Fluorescence binding assay in solution (1-NPN titration and competitive displacement). Conditions: for binding in solution (displacement of 1-NPN), in words: pH 7.4, protein and probe 2 μM. The method, then:
Dissociation constants were measured in solution along with the widely adopted fluorescence binding assay. Spectra were recorded on a PerkinElmer FL 6500 spectrofluorometer at room temperature in a right-angle configuration, with a 1-cm light path quartz cuvette and 5-nm slits for both excitation and emission.
First, the binding of BmorPBP1 to the fluorescent probe N-phenyl-1-naphthylamine (1-NPN) […] of 1-NPN in methanol to final concentrations of 2–16 μM. Excitation wavelength was 337 nm and intensity was recorded at the maximum of the emission peak, 408 nm. The affinities of other ligands were evaluated in competitive binding assays by titrating a solution of the protein and 1-NPN, both at the concentration of 2 μM, with aliquots of 1-mM methanol solutions of each chemical to final concentrations of 2–16 μM. The affinity to 1-NPN was calculated using Prism software. Dissociation constants of competing ligands were evaluated from the corresponding [IC]50 values (the concentration of each ligand halving the initial value of fluorescence), using the equation: Kd = [IC]50/1 + [1-NPN]/KNPN, where [1-NPN] is the concentration of free 1-NPN and KNPN the dissociation constant of the complex Protein/1-NPN.

The target in experiment [2] is T2, BmorPBP1 immobilized on reduced graphene oxide field-effect transistor (Bombyx mori, UniProt P34174).
T2 construct: polyhistidine (his-tag, from pET15b) (N); made in house; host or cells: Escherichia coli
T2 sequence (P34174 23-164): T1 sequence (P34174 23-164)
As to the kind of experiment: BmorPBP1-functionalized rGO-FET biosensor (titration and kinetic runs, Langmuir model). The class given is binding. The method, then:
Reduced graphene oxide field-effect transistors (rGO-FET) were fabricated as previously described with a modified channel width of 30 µm. Electrical properties of the FET devices were tested along with the procedure. For the detection of different odorants, the rGO-based biosensors were functionalized with BmorPBP1. Briefly, for the attachment of the protein to the sensing area, the graphene surface was chemically modified with a bifunctional linker: a 10-μL droplet of a 10-μM 6-(4-(pyren-3-yl) butanamido)-2-(bis(carboxymethyl) amino) hexanoic acid solution was applied overnight to the rGO channel area, rinsed, incubated for 30 min with a 40-mM NiCl2 solution (pH 5.5, adjusted with KOH), rinsed, then incubated with 20 μL of a 10-μM protein solution, followed by a final rinse.
The evaluation of BmorPBP1 binding affinities to various odorants was performed under the following standardized conditions: electrical measurements were taken using a Keithley 4200 semiconductor characterization system. An Ag/AgCl reference electrode (Flex ref, World Precision Instruments) was used to operate the FET device in liquid gate configuration with a constant gate bias (Vg) of −0.6 V and a constant source-drain bias (VDS) of 0.05 V. A flow rate of the odorant solutions in the flow cell was set at 300 µL/min in order to minimize mass transfer limitations of the analytes to the sensor surface. […] Subsequently, the biosensor was titrated with different odorant concentrations (1 μM–4 mM) and the change in source–drain current (ΔIDS) was monitored in real time. Here, the lowest odorant concentration was injected first, and the odorant was allowed to interact with the surface immobilized BmorPBP1 to reach equilibrium, as indicated by a constant source–drain current. This process was repeated with odorant solutions of higher concentrations, until the surface was fully saturated with the target analyte, as indicated by a constant source–drain current (IDS). Surface titration experiments were terminated by a final washing step using pure buffer in order to dissociate the formed PBP1-odorant complex, resulting in almost complete restoration of the initial baseline current. […] For this reason, the drain current response curves were normalized by subtraction to the baseline current. Kinetic parameters, as well as the dissociation constant, Kd, of the above described titration experiments were analyzed using the Langmuir model.
With the electronic transducer directly coupled to a flow cell, one can perform titrations as well as kinetic measurements by online changing of the analyte solution (pure buffer, different analytes at different concentrations) flowing through the cell, while recording the sensor response, i.e., a change in the source–drain current, ΔIDS = IDS − IDSBaseline, in real time.
Earlier studies have given evidence that the underlying molecular mechanism of the recognition and binding of odorant analytes from solution to the surface-immobilized protein, BmorPBP1 in this case, can be well described by the Langmuir adsorption model: the sensor has a fixed number of binding sites on its surface, whose occupancy is measured by Θ, the coverage, ranging from 0 to 1. […] The Langmuir model describes this relation between the coverage, Θ, and the bulk analyte concentration, c0 , by Equation (1):(1) Θ(c0)=ΔIDS(c0)/ΔIDS(c∞)=c0/Kd/(1+c0/Kd)
Alternatively, with the flow cell attached, one can measure the kinetics of the sensor response, ΔIDS, after changing the concentration in the bulk to another value. For an increase of the bulk concentration this can be described in the Langmuir model by Equation (2):(2) Θ(t)=c0/Kd/(1+c0/Kd)·(1−e^−(konc0+koff)t)
Measuring this association of kinetics at different bulk concentrations then allows for the determination of the rate constants, kon and koff. […]

For experiment [3], the target named is T1, BmorPBP1 (Bombyx mori pheromone-binding protein PBP1). Conditions: at concentrations of 7 μM ref 31; cited from earlier work.
Setting [4] is: competitive displacement of 1-NPN, protein and probe 2 μM, 50 mM Tris-Cl pH 7.4, read-out: Solution Data Kd.
The mark [5] stands for this setting: immobilized protein, pH 8.0, Langmuir isotherm fit, read-out: Sensor Data Kd, Titration.
Where [6] appears, read: immobilized protein, pH 8.0, kinetic runs, averaged results, read-out: Sensor Data Kd, Kinetics.
Where [7] appears, read: Sensor Data Kd, Kinetics, immobilized protein, pH 8.0, kinetic runs, averaged results.

Regarding `c1ccc(Nc2cccc3ccccc23)cc1` [1-NPN, N-phenyl-1-naphthylamine], the pKd in experiment [1] is 6.12.
With `COc1nccnc1CC(C)C` [2-Isobutyl-3-methoxypyrazine, 2-isobutyl-3-methoxypyrazine], the pKd in experiment [1] (setting [4]) was below 4.00; in experiment [2] (setting [5]), 2.55; in experiment [2] (setting [6]) it was 2.89. The “binding in solution (displacement of 1-NPN), in words” value in experiment [1] was “poor binding”. Besides, the “sensor response (ΔIDS), in words” value in experiment [2] (physiological pH / pH 8) is reported as “very weak responses”.
In the case of `CCC/C=C\C=C\CCCCCCCCC=O` [Bombykal, bombykal], the results for the pKd in experiment [1] (setting [4]) and in experiment [2] (setting [6]) were 5.96 and 5.13, respectively. Also, in experiment [1], the “binding in solution (displacement of 1-NPN), in words” value is reported as “strongest ligand”. Also, in experiment [3], the “displacement of the fluorescence probe 1-NPN, in words” value was “efficiently and similarly displace”.
Consider `CCC/C=C\C=C\CCCCCCCCCO` [Bombykol, bombykol], for which the pKd in experiment [1] (competitive displacement of 1-NPN, pH 4.0, read-out: Solution Data Kd) is below 4.00; in experiment [1] (setting [4]) it was 6.03; in experiment [2] (immobilized protein, pH 4.0, read-out: Sensor Data Kd, Kinetics), below 3.00; in experiment [2] (setting [5]), 5.01; in experiment [2] (setting [6]), 5.09; in experiment [2] (pH 8, single global analysis run of Figure 2A(I)/2C, read-out: kinetically-determined dissociation constant Kd (koff/kon)) it was 5.33. In addition, in experiment [1] (pH 4), the “binding in solution at pH 4, in words” value is “completely abolished; also recorded: failed to bind”. In addition, in experiment [1], the “binding in solution (displacement of 1-NPN), in words” value was “strongest ligand”. Also, the “sensor response (ΔIDS) at pH 4, in words” value in experiment [2] (pH 4) is recorded as “failed to bind; also recorded: barely detectable”. In experiment [3], the “displacement of the fluorescence probe 1-NPN, in words” value was “efficiently and similarly displace”.
For the compound `C=CCc1ccc(O)c(OC)c1` [Eugenol, eugenol], the pKd in experiment [1] (setting [4]) is 5.55; in experiment [2] (setting [7]), 5.09; in experiment [2] (Sensor Data Kd, Titration, immobilized protein, pH 8.0, Langmuir isotherm fit), 5.12. Besides, the “binding in solution (displacement of 1-NPN), in words” value in experiment [1] was “appreciable affinity”. In addition, in experiment [2] (physiological pH / pH 8), the “sensor response (ΔIDS), in words” value is given as “strong signal”.
Take `CC(C)=CCC/C(C)=C/CO` [Geraniol, geraniol]: in experiment [1], the pKd was around 4.70 and the “binding in solution (displacement of 1-NPN), in words” value is “poor binding”. The pKd in experiment [2] (setting [7]) is 3.33. Moreover, the “sensor response (ΔIDS), in words” value in experiment [2] (physiological pH / pH 8) is “very weak responses”.
On to `CC(=O)OCCC(C)C` [Isoamyl acetate, isoamyl acetate], for which the pKd in experiment [1] (setting [4]) is around 4.70; in experiment [2] (setting [6]) it was below 3.00. The “binding in solution (displacement of 1-NPN), in words” value in experiment [1] is “poor binding”. Also, the “sensor response (ΔIDS), in words” value in experiment [2] (physiological pH / pH 8) was “does not give a significant response”; in experiment [2] (physiological pH / pH 8, listed as isoamyl acetate) it was “very weak responses”.
For `C=CC(C)(O)CCC=C(C)C` (centres unmarked) [Linalool, linalool], the pKd was around 4.40 in experiment [1] (setting [4]) and below 3.00 in experiment [2] (setting [6]). Also, in experiment [1], the “binding in solution (displacement of 1-NPN), in words” value is reported as “poor binding”. For the same compound, the “sensor response (ΔIDS), in words” value in experiment [2] (physiological pH / pH 8) is on record as “very weak responses”.

The values above are taken from publication PMC7827809, “Responses of the Pheromone-Binding Protein of the Silk Moth Bombyx mori on a Graphene Biosensor Match Binding Constants in Solution” (Sensors (Basel, Switzerland), 2021).
